≈ marks a conversion by molar mass, not a printed value. Calls of active or inactive are those of the source. The calls are words filed in the database; no cut-off is given here.
Legend:
Staphylococcus aureus [1] = experiment: Synergistic antibacterial activity against Staphylococcus aureus ATCC 29213 incubated for 24 hrs in presence of daptomycin by checkerboard titration assay; assay type: functional; conditions: ATCC 29213, 24 h
Staphylococcus aureus [2] = experiment: Antibacterial activity against vancomycin-resistant Staphylococcus aureus VRS12 incubated for 16 to 18 hrs by broth microdilution assay; assay type: functional
Staphylococcus aureus [3] = experiment: Antibacterial activity against vancomycin-resistant Staphylococcus aureus VRS1 incubated for 16 to 18 hrs by broth microdilution assay; assay type: functional
Staphylococcus aureus [4] = experiment: Antibacterial activity against methicillin-resistant Staphylococcus aureus NR10191 incubated for 16 to 18 hrs by broth microdilution assay; assay type: functional
Staphylococcus aureus [5] = experiment: Antibacterial activity against methicillin-resistant Staphylococcus aureus NR100 incubated for 16 to 18 hrs by broth microdilution assay; assay type: functional
Staphylococcus aureus [6] = experiment: Antibacterial activity against methicillin-resistant Staphylococcus aureus NR10192 incubated for 16 to 18 hrs by broth microdilution assay; assay type: functional
Staphylococcus aureus [7] = experiment: Antibacterial activity against methicillin-resistant Staphylococcus aureus NR10198 incubated for 16 to 18 hrs by broth microdilution assay; assay type: functional
Pseudomonas aeruginosa = experiment: Antibacterial activity against Pseudomonas aeruginosa ATCC 27853 incubated for 16 to 18 hrs by broth microdilution assay; assay type: functional
[8] = Cytotoxicity against African green monkey Vero cells assessed as reduction in cell viability after 72 hrs by MTT assay; assay type: cell-based; conditions: chlorocebus sabaeus
Staphylococcus aureus [9] = experiment: Synergistic antibacterial activity against Staphylococcus aureus ATCC 29213 incubated for 24 hrs in presence of levofloxacin by checkerboard titration assay; assay type: functional; conditions: ATCC 29213, 24 h
Staphylococcus aureus [10] = experiment: Synergistic antibacterial activity against Staphylococcus aureus ATCC 29213 incubated for 24 hrs in presence of rifampicin by checkerboard titration assay; assay type: functional; conditions: ATCC 29213, 24 h
Staphylococcus aureus [11] = experiment: Potentiation of gentamycin-induced antibacterial activity against Staphylococcus aureus ATCC 29213 assessed as gentamycin MIC incubated for 24 hrs by checkerboard titration assay (reference value: 0.25 ug/ml); assay type: functional; conditions: ATCC 29213, 24 h
Staphylococcus aureus [12] = experiment: Potentiation of vancomycin-induced antibacterial activity against Staphylococcus aureus ATCC 29213 assessed as vancomycin MIC incubated for 24 hrs by checkerboard titration assay (reference value: 1 ug/ml); assay type: functional; conditions: ATCC 29213, 24 h
Staphylococcus aureus [13] = experiment: Synergistic antibacterial activity against Staphylococcus aureus ATCC 29213 assessed as FIC incubated for 24 hrs in presence of ceftazidime by checkerboard titration assay; assay type: functional
Staphylococcus aureus [14] = experiment: Synergistic antibacterial activity against Staphylococcus aureus ATCC 29213 assessed as FIC incubated for 24 hrs in presence of linezolid by checkerboard titration assay; assay type: functional
Staphylococcus aureus [15] = experiment: Synergistic antibacterial activity against Staphylococcus aureus ATCC 29213 assessed as FIC incubated for 24 hrs in presence of levofloxacin by checkerboard titration assay; assay type: functional
Staphylococcus aureus [16] = experiment: Potentiation of ceftazidime-induced antibacterial activity against Staphylococcus aureus ATCC 29213 assessed as FIC incubated for 24 hrs by checkerboard titration assay; assay type: functional
Staphylococcus aureus [17] = experiment: Potentiation of meropenem-induced antibacterial activity against Staphylococcus aureus ATCC 29213 assessed as FIC incubated for 24 hrs by checkerboard titration assay; assay type: functional
Staphylococcus aureus [18] = experiment: Potentiation of minocycline-induced antibacterial activity against Staphylococcus aureus ATCC 29213 assessed as FIC incubated for 24 hrs by checkerboard titration assay; assay type: functional
Staphylococcus aureus [19] = experiment: Synergistic antibacterial activity against Staphylococcus aureus ATCC 29213 assessed as sum of FIC for test compound in presence of daptomycin and FIC for daptomycin in presence of test compound incubated for 24 hrs by checkerboard titration assay; assay type: functional
Staphylococcus aureus [20] = experiment: Synergistic antibacterial activity against Staphylococcus aureus ATCC 29213 assessed as sum of FIC for test compound in presence of gentamycin and FIC for gentamycin in presence of test compound incubated for 24 hrs by checkerboard titration assay; assay type: functional
Staphylococcus aureus [21] = experiment: Synergistic antibacterial activity against Staphylococcus aureus ATCC 29213 assessed as sum of FIC for test compound in presence of linezolid and FIC for linezolid in presence of test compound incubated for 24 hrs by checkerboard titration assay; assay type: functional
Staphylococcus aureus [22] = experiment: Synergistic antibacterial activity against Staphylococcus aureus ATCC 29213 assessed as sum of FIC for test compound in presence of levofloxacin and FIC for levofloxacin in presence of test compound incubated for 24 hrs by checkerboard titration assay; assay type: functional
Staphylococcus aureus [23] = experiment: Synergistic antibacterial activity against Staphylococcus aureus ATCC 29213 assessed as sum of FIC for test compound in presence of rifampicin and FIC for rifampicin in presence of test compound incubated for 24 hrs by checkerboard titration assay; assay type: functional
Staphylococcus aureus [24] = experiment: Synergistic antibacterial activity against Staphylococcus aureus ATCC 29213 assessed as sum of FIC for test compound in presence of vancomycin and FIC for vancomycin in presence of test compound incubated for 24 hrs by checkerboard titration assay; assay type: functional
[25] = Selectivity index, ratio of CC50 for African green monkey Vero cells to MIC for Mycobacterium tuberculosis H37Rv; assay type: toxicity; conditions: read-out: Selectivity Index
Staphylococcus aureus [26] = experiment: Antibacterial activity against Staphylococcus aureus ATCC 29213 assessed as time required to increase 1 log10 CFU at MIC incubated for 1 hr followed by compound washout and measured at 1 hr intervals (reference value: 2 hrs); assay type: functional
Staphylococcus aureus [27] = experiment: Antibacterial activity against Staphylococcus aureus ATCC 29213 assessed as time required to increase 1 log10 CFU at 10 times MIC incubated for 1 hr followed by compound washout and measured at 1 hr intervals (reference value: 2 hrs); assay type: functional
Staphylococcus aureus [28] = experiment: Antibacterial activity against Staphylococcus aureus ATCC 29213 assessed as post antibiotic effect time at MIC incubated for 1 hr followed by compound washout and measured at 1 hr intervals (reference value: 0 hrs); assay type: functional
Staphylococcus aureus [29] = experiment: Antibacterial activity against Staphylococcus aureus ATCC 29213 assessed as post antibiotic effect time at 10 times MIC incubated for 1 hr followed by compound washout and measured at 1 hr intervals (reference value: 0 hrs); assay type: functional
Staphylococcus aureus [30] = experiment: Antibiofilm activity against Staphylococcus aureus ATCC 29213 at 10 times MIC incubated 48 hrs by crystal violet staining based assay relative to control; assay type: functional
Staphylococcus aureus [31] = experiment: Antimicrobial activity against Staphylococcus aureus ATCC 29213 infected in BALB/c mouse model of neutropenic thigh infection assessed reduction in bacterial levels in thigh at 25 mg/kg, ip administered 3 hrs post infection twice at interval of 3 hrs between injections and measured after 24 hrs; assay type: functional, organism-based
Staphylococcus aureus [32] = experiment: Antimicrobial activity against Staphylococcus aureus ATCC 29213 infected in BALB/c mouse model of neutropenic thigh infection assessed reduction in bacterial levels in thigh at 50 mg/kg, ip administered 3 hrs post infection twice at interval of 3 hrs between injections and measured after 24 hrs; assay type: functional, organism-based
Staphylococcus aureus [33] = experiment: Antimicrobial activity against Staphylococcus aureus ATCC 29213 infected in ip dosed BALB/c mouse model of neutropenic thigh infection assessed reduction in bacterial levels administered 3 hrs post infection twice at interval of 3 hrs between injections and measured after 24 hrs; assay type: functional, organism-based

SMILES: N#Cc1ccc(/C=C/c2nc3cccc(F)c3c(=O)n2-c2cccc(O)c2)cc1
- MIC (Staphylococcus aureus [1]): 0.0078 µg/mL
- MIC (Staphylococcus aureus [2]): 0.125 µg/mL (≈ 0.326 µM)
- MIC (Staphylococcus aureus [3]): 0.25 µg/mL (≈ 0.652 µM)
- MIC (Staphylococcus aureus [4]): < 0.125 µg/mL
- MIC (Staphylococcus aureus [5]): 0.5 µg/mL (≈ 1.3 µM)
- MIC (Staphylococcus aureus [6]): < 0.125 µg/mL
- MIC (Staphylococcus aureus [7]): < 0.125 µg/mL
- MIC (Pseudomonas aeruginosa): > 64 µg/mL
- CC50 at 72 h [8]: 5 to 100 µg/mL (≈ 13 to 261 µM)
- MIC (Staphylococcus aureus [9]): 0.0078 µg/mL
- MIC (Staphylococcus aureus [10]): 0.0078 µg/mL
- MIC (Staphylococcus aureus [11]): 0.0019 µg/mL
- MIC (Staphylococcus aureus [12]): 0.0039 µg/mL
- FIC (Staphylococcus aureus [13]): 0.0625
- FIC (Staphylococcus aureus [14]): 0.0625
- FIC (Staphylococcus aureus [15]): 0.0625
- FIC (Staphylococcus aureus [16]): 0.0039
- FIC (Staphylococcus aureus [17]): 0.0018
- FIC (Staphylococcus aureus [18]): 0.0072
- FIC (Staphylococcus aureus [19]): 0.0644
- FIC (Staphylococcus aureus [20]): 0.0703
- FIC (Staphylococcus aureus [21]): 0.0662
- FIC (Staphylococcus aureus [22]): 0.0661
- FIC (Staphylococcus aureus [23]): 0.0645
- FIC (Staphylococcus aureus [24]): 0.0664
- selectivity ratio [25]: > 12.5

SMILES: N#Cc1ccc(/C=C/c2nc3ccccc3c(=O)n2-c2ccc(C(=O)O)c(O)c2)cc1
- MIC (Staphylococcus aureus [1]): 0.0019 µg/mL
- MIC (Staphylococcus aureus [2]): 0.125 µg/mL (≈ 0.305 µM)
- MIC (Staphylococcus aureus [3]): 0.125 to 0.25 µg/mL (≈ 0.305 to 0.611 µM)
- MIC (Staphylococcus aureus [4]): < 0.125 µg/mL
- MIC (Staphylococcus aureus [5]): 0.125 to 0.25 µg/mL (≈ 0.305 to 0.611 µM)
- MIC (Staphylococcus aureus [6]): < 0.125 µg/mL
- MIC (Staphylococcus aureus [7]): < 0.125 µg/mL
- MIC (Pseudomonas aeruginosa): > 64 µg/mL
- CC50 at 72 h [8]: > 5 µg/mL
- MIC (Staphylococcus aureus [9]): 0.0019 µg/mL
- MIC (Staphylococcus aureus [10]): 0.0019 µg/mL
- MIC (Staphylococcus aureus [11]): 0.0019 µg/mL
- MIC (Staphylococcus aureus [12]): 0.0039 µg/mL
- FIC (Staphylococcus aureus [13]): 0.032
- FIC (Staphylococcus aureus [14]): 0.032
- FIC (Staphylococcus aureus [15]): 0.032
- FIC (Staphylococcus aureus [16]): 0.0019
- FIC (Staphylococcus aureus [17]): 0.003
- FIC (Staphylococcus aureus [18]): 0.007
- FIC (Staphylococcus aureus [19]): 0.036
- FIC (Staphylococcus aureus [20]): 0.04
- FIC (Staphylococcus aureus [21]): 0.036
- FIC (Staphylococcus aureus [22]): 0.036
- FIC (Staphylococcus aureus [23]): 0.034
- FIC (Staphylococcus aureus [24]): 0.036
- Time (Staphylococcus aureus [26]): 2 h
- Time (Staphylococcus aureus [27]): 4 h
- Time (Staphylococcus aureus [28]): 0 h
- Time (Staphylococcus aureus [29]): 2 h
- Activity (Staphylococcus aureus [30]): 14.1%
- Activity (Staphylococcus aureus [31]): Active
- Activity (Staphylococcus aureus [32]): Active
- Activity (Staphylococcus aureus [33]): Dose-dependent effect
